Where a name gives a salt, the structure may show the parent alone. Read-outs that look alike come from different tables or passages of the source.
Legend:
[1] = tested on: trembling and peripherical cholinergic manifestations provoked by tremorine; test: Antitremorine activity (ED50); format: in vivo; conditions: mice; for ED50: Mus musculus, ip, i.p. aqueous solution, tremorine 20 mg/kg i.p. half an hour after
Protocol: (§1) The antagonism of the test compounds to the trembling and peripherical cholinergic manifestations provoked by tremorine [Everett et al, Science, Vol. 124 (1956), p. 79] was studied on mice.
The product of Example 1 in aqueous solution was intraperitoneally administered at doses of 0.5, 1,2 and 5 mg/kg to groups of 10 mice and the mice received an intraperitoneal injection of 20 mg/kg of tremorine half an hour after the test product. The reactions (trembling, salivation, lacrymation) of the animals were observed 10, 20, 30 and 60 minutes after the tremorine injection. At the height of the activity, the 50% efficacy dose (ED50) in which 50% of the animals were protected from the trembling and peripheral parasympathomimetic reactions of salivation and lacrymation normally provoked by tremorine injection were determined.

[2] = tested on: trembling and peripherial cholinergic manifestations provoked by oxotremorine; test: Antioxotremorine activity: antagonism to the trembling and peripherial cholinergic manifestations (Table II); format: in vivo, mice
Protocol: The antagonism of the test products to the trembling and peripherial cholinergic manifestations provoked by oxotremorine [Cho et al, J. Biochem. Biophys. Res. Commun., Vol. 5, (196l) p. 276] was studied on mice. The product of Example 1 was administered subcutaneously in aqueous solution at doses of 50 and 100 mg/kg to groups of 10 mice and the products of Example 2 were subcutaneously administered in sesame oil solution at doses of 200 and 400 mg/kg to groups of 10 mice. Control animals received no vehicle. The mice then received a single intraperitoneal dose of 0.5 mg/kg of oxotremorine either 4 hours, 1 day, 2, 3, 4 or 7 days after the injection of the test product. The reaction of the animals as in Table I were recorded 5,10 and 15 minutes after the injection of oxotremorine and the percent of inhibition of the different reactions, at the height of the effect, after the oxotremorine injection was determined as a function of time.

[3] = tested on: antinociceptive activity of oxotremorine; test: Antagonism of antinociceptive activity of oxotremorine, hot plate (Table III); format: in vivo, mice
Protocol: The antinociceptive activity of oxotremorine [Leslie, J. Pharm. Pharmae., Vol. 2 (1969), p. 248-50] was determined on mice using the hot plate method of Eddy et al [J. Pharmacol. Vol. 107 (1953), p. 385] in the presence and absence of the test product presumed to be antagonistic. The product of Example 1 was administered subcutaneously in aqueous solution at doses of 50 and 100 mg/kg to groups of 10 mice and the products of Examples 2 to 5 were subcutaneously administered in sesame oil solution at doses of 200 and 400 mg/kg to groups of 10 mice. The mice then received a single intraperitoneal injection of 0.5 mg/kg of oxotremorine either 4 hours, 1 day, 2, 3, 4 or 7 days after the test product administration. For each time considerated, the mice were placed on the hot plate one half hour after the oxotremorine administration and the time for the appearance of nociceptive refluxes consistituted by simultaneous licking of the front paws was noted. The maximum time of staying on the hot plate was fixed at 45 seconds and the percentage of animals with a reaction time (RT) less than 40 seconds in spite of oxotremorine administration was determined.

[4] = Acute toxicity study (LD50); set-up: species or system mice; conditions: mouse, in vivo, aqueous solution
Protocol: The acute toxicity of the products was determined intraperitoneally or subcutaneously on mice weighing about 20 g with the LD50 dose being calculated by the method of Litchfield et al [J. Pharmacol. exp. Therap., Vol. 96 (1949), p. 99-133]. The LD50 for the product of Example 1 in aqueous solution was about 100 mg/kg intraperitoneally after 2 days of observation and about 500 mg/kg subcutaneously after 5 days of observation.

[5] = tested on: trembling and peripherical cholinergic manifestations provoked by tremorine; test: Antitremorine activity as a function of time (Table I); format: in vivo, mice
Protocol: as §1
The products of Examples 2 and 3 were administered subcutaneously in sesame oil solution at doses of 200 and 400 mg/kg at a volume of 25 ml/kg to groups of 10 mice. The mice receied intraperitoneal injections of 20 mg/kg of tremorine either for 4 hours, one day, 2, 3 or 4 days after injection of the test product. […] The reactions (T-trembling; S-salivation; L-lacrymation) were noted 10, 20, 30 and 60 minutes after the tremorine injection and the percent of inhibition of the different reactions at the height of the effect after injection of tremorine were noted as a function of time.

[6] = 50 mg/kg s.c. aqueous solution, after 4 h
[7] = 50 mg/kg s.c. aqueous solution, after 1 d
[8] = 100 mg/kg s.c. aqueous solution, after 4 h
[9] = 100 mg/kg s.c. aqueous solution, after 1 d
[10] = 200 mg/kg s.c. sesame oil, after 4 h
[11] = 200 mg/kg s.c. sesame oil, after 1 d
[12] = 200 mg/kg s.c. sesame oil, after 2 d
[13] = 200 mg/kg s.c. sesame oil, after 3 d
[14] = 200 mg/kg s.c. sesame oil, after 4 d
[15] = 400 mg/kg s.c. sesame oil, after 4 h
[16] = 400 mg/kg s.c. sesame oil, after 1 d
[17] = 400 mg/kg s.c. sesame oil, after 2 d
[18] = 400 mg/kg s.c. sesame oil, after 3 d
[19] = 400 mg/kg s.c. sesame oil, after 4 d
[20] = 200 mg/kg s.c. sesame oil, after 7 d
[21] = 400 mg/kg s.c. sesame oil, after 7 d

## OCCN1C2CCC1CC(=C1c3ccccc3CSc3ccccc31)C2 (racemic) [Example 1, dl N-(β-hydroxyethyl)-11-(3'-nortropylidene)-6,11-dihydrodibenzo(b,e)thiepine hydrochloride]
[1]; read-out: ED50 for parasympathomimetic reactions (salivation and lacrymation)
  ED50: 1 to 2 mg/kg
[1]; read-out: ED50 for trembling
  ED50: 1 mg/kg
[1]; antitremorine test, i.p.
  anticholinergic activity (in words): important anticholinergic activity
[2]; [6]
  % inhibition of reactions: L (lacrymation): 100%
  % inhibition of reactions: S (salivation): 100%
  % inhibition of reactions: T (trembling): 100%
[2]; [7]
  % inhibition of reactions: L (lacrymation): 0%
  % inhibition of reactions: S (salivation): 0%
  % inhibition of reactions: T (trembling): 0%
[2]; [8]
  % inhibition of reactions: L (lacrymation): 100%
  % inhibition of reactions: S (salivation): 100%
  % inhibition of reactions: T (trembling): 100%
[2]; [9]
  % inhibition of reactions: L (lacrymation): 0%
  % inhibition of reactions: S (salivation): 0%
  % inhibition of reactions: T (trembling): 0%
[3]; [6]
  % of animals with a RT less than 40 seconds: 100%
[3]; [7]
  % of animals with a RT less than 40 seconds: 10%
[3]; [8]
  % of animals with a RT less than 40 seconds: 100%
[3]; [9]
  % of animals with a RT less than 40 seconds: 20%
[3]; s.c., mice, Table III
  antagonistic activity against antinociceptive activity of oxotremorine (in words): important antagonistic activity against antinociceptive activity of oxotremorine which is manifested for several hours
[4]; ip, after 2 days of observation
  LD50 at 48 h: ~100 mg/kg
[4]; sc, after 5 days of observation
  LD50 at 120 h: ~500 mg/kg

## CCC(=O)OCCN1C2CCC1CC(=C1c3ccccc3CSc3ccccc31)C2 (racemic) [Example 2, dl N-(β-propionyloxyethyl)-11-(3'-nortropylidene)-6,11-dihydrodibenzo(b,e)thiepine]
[5]; [10]
  % inhibition of reactions: L (lacrymation): 100%
  % inhibition of reactions: S (salivation): 90%
  % inhibition of reactions: T (trembling): 100%
[5]; [11]
  % inhibition of reactions: L (lacrymation): 100%
  % inhibition of reactions: S (salivation): 90%
  % inhibition of reactions: T (trembling): 90%
[5]; [12]
  % inhibition of reactions: L (lacrymation): 40%
  % inhibition of reactions: S (salivation): 0%
  % inhibition of reactions: T (trembling): 0%
[5]; [13]
  % inhibition of reactions: L (lacrymation): 100%
  % inhibition of reactions: S (salivation): 50%
  % inhibition of reactions: T (trembling): 20%
[5]; [14]
  % inhibition of reactions: L (lacrymation): 60%
  % inhibition of reactions: S (salivation): 0%
  % inhibition of reactions: T (trembling): 0%
[5]; [15]
  % inhibition of reactions: L (lacrymation): 100%
  % inhibition of reactions: S (salivation): 100%
  % inhibition of reactions: T (trembling): 100%
[5]; [16]
  % inhibition of reactions: L (lacrymation): 100%
  % inhibition of reactions: S (salivation): 100%
  % inhibition of reactions: T (trembling): 100%
[5]; [17]
  % inhibition of reactions: L (lacrymation): 100%
  % inhibition of reactions: S (salivation): 70%
  % inhibition of reactions: T (trembling): 40%
[5]; [18]
  % inhibition of reactions: L (lacrymation): 100%
  % inhibition of reactions: S (salivation): 20%
  % inhibition of reactions: T (trembling): 10%
[5]; [19]
  % inhibition of reactions: L (lacrymation): 60%
  % inhibition of reactions: S (salivation): 90%
  % inhibition of reactions: T (trembling): 50%
[5]; s.c. sesame oil, mice, Table I
  antitremorine activity (in words): prolonged antitremorine activity
[2]; [10]
  % inhibition of reactions: L (lacrymation): 100%
  % inhibition of reactions: S (salivation): 80%
  % inhibition of reactions: T (trembling): 80%
[2]; [11]
  % inhibition of reactions: L (lacrymation): 100%
  % inhibition of reactions: S (salivation): 90%
  % inhibition of reactions: T (trembling): 100%
[2]; [12]
  % inhibition of reactions: L (lacrymation): 70%
  % inhibition of reactions: S (salivation): 30%
  % inhibition of reactions: T (trembling): 30%
[2]; [13]
  % inhibition of reactions: L (lacrymation): 30%
  % inhibition of reactions: S (salivation): 10%
  % inhibition of reactions: T (trembling): 0%
[2]; [14]
  % inhibition of reactions: L (lacrymation): 11%
  % inhibition of reactions: S (salivation): 0%
[2]; [20]
  % inhibition of reactions: L (lacrymation): 10%
  % inhibition of reactions: S (salivation): 0%
  % inhibition of reactions: T (trembling): 0%
[2]; [15]
  % inhibition of reactions: L (lacrymation): 100%
  % inhibition of reactions: S (salivation): 100%
  % inhibition of reactions: T (trembling): 100%
[2]; [16]
  % inhibition of reactions: L (lacrymation): 100%
  % inhibition of reactions: S (salivation): 100%
  % inhibition of reactions: T (trembling): 100%
[2]; [17]
  % inhibition of reactions: L (lacrymation): 80%
  % inhibition of reactions: S (salivation): 60%
  % inhibition of reactions: T (trembling): 70%
[2]; [18]
  % inhibition of reactions: L (lacrymation): 10%
  % inhibition of reactions: S (salivation): 20%
  % inhibition of reactions: T (trembling): 0%
[2]; [19]
  % inhibition of reactions: L (lacrymation): 67%
  % inhibition of reactions: S (salivation): 20%
  % inhibition of reactions: T (trembling): 20%
[2]; [21]
  % inhibition of reactions: L (lacrymation): 20%
  % inhibition of reactions: S (salivation): 20%
  % inhibition of reactions: T (trembling): 10%
[2]; s.c. sesame oil, mice, Table II
  antioxotremorine activity (in words): prolonged antioxotremorine activity
[3]; [10]
  % of animals with a RT less than 40 seconds: 100%
[3]; [11]
  % of animals with a RT less than 40 seconds: 100%
[3]; [12]
  % of animals with a RT less than 40 seconds: 90%
[3]; [13]
  % of animals with a RT less than 40 seconds: 50%
[3]; [14]
  % of animals with a RT less than 40 seconds: 60%
[3]; [20]
  % of animals with a RT less than 40 seconds: 30%
[3]; [15]
  % of animals with a RT less than 40 seconds: 100%
[3]; [16]
  % of animals with a RT less than 40 seconds: 100%
[3]; [17]
  % of animals with a RT less than 40 seconds: 100%
[3]; [18]
  % of animals with a RT less than 40 seconds: 80%
[3]; [19]
  % of animals with a RT less than 40 seconds: 90%
[3]; [21]
  % of animals with a RT less than 40 seconds: 20%
